According to ChEMBL document CHEMBL1201862, “PubChem BioAssay data set” (2004):
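Five compound concentrations were applied to cells in 96-well plates for 48 hours; endpoints were derived by simple linear interpolation of the resulting dose-response curve. GI50 = concentration required for 50% inhibition of growth.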 Calls of active or inactive are those of the source. Rule as the data show it: active = GI50 up to about 1.1 µM and inactive = higher.

Key:
Assay in all cases: inhibition of tumour cell growth, NCI panel, 48 h
[1] = system: NCI-H226
[2] = system: SW-620
[3] = system: EKVX
[4] = system: HOP-62
[5] = system: HOP-92
[6] = system: SNB-75
[7] = system: SK-MEL-28
[8] = system: KM12
[9] = system: NCI-H522
[10] = system: A549
[11] = system: K562
[12] = system: TK-10
[13] = system: NCI-H23
[14] = system: HL-60
[15] = system: SK-OV-3
[16] = system: RPMI-8226
[17] = system: HT-29
[18] = system: U-251
[19] = system: RXF 393
[20] = system: UACC-62

Measured: GI50

OCC(O)COc1ccc(Br)cc1 (stereo not given)
inactive: [1] > 100 µM | [2] > 100 µM | [3] > 100 µM | [4] > 100 µM | [5] > 100 µM | [6] > 100 µM | [7] > 100 µM | [8] > 100 µM | [9] > 100 µM | [10] 50.7 µM | [11] > 100 µM | [12] > 100 µM | [13] > 100 µM | [14] > 100 µM | [15] > 100 µM | [16] > 100 µM | [17] > 100 µM | [18] > 100 µM | [19] > 100 µM | [20] > 100 µM

COc1cc2cc[n+]3c(C)c4cc(OC)c(OC)cc4c([O-])c3c2cc1OC
inactive: [1] 33.1 µM | [2] 41.9 µM | [3] > 100 µM | [4] > 100 µM | [5] > 100 µM | [6] 33 µM | [7] 64.3 µM | [8] 70.1 µM | [9] 18.2 µM | [10] > 100 µM | [11] 64.3 µM | [12] > 100 µM | [13] 87.7 µM | [14] 16.9 µM | [15] > 100 µM | [16] > 100 µM | [17] 41.2 µM | [18] 47.1 µM | [19] 35.6 µM | [20] > 100 µM
